Data as given in patent publication US20130177528A1, “COMPOSITIONS AND METHODS FOR INHIBITING VIRAL INFECTION” (WESTERN UNIVERSITY OF HEALTH SCIENCES, priority 2011, published 2013).

How the values were obtained:
HSV-1 (KOS) gL86 [1] = assay: HSV-1 infection of HeLa cells at MOIs 5, 15 and 25 PFU/cell (Example 6); assay type: cell-based, herpes simplex virus type-1; details: virus pre-incubated 180 min, 6 hr
Protocol: HeLa cells were each grown to 100% confluency in 96-well plates. The β-galactosidase-expressing recombinant virus HSV-1 (KOS) HSV-1 gL86 […] was pre-incubated at MOIs of 5 (FIG. 10, panel A), 15 (FIG. 10, panel B) and 25 (FIG. 10, panel C) plaque-forming units per cell (PFU) with VCN (VN), CN or ADAM15 (Ad15) at the concentrations indicated or mock treated with 1 X phosphate saline buffer for 180 min at room temperature. After 6 hr, the cells were washed, permeabilized and incubated with ONPG substrate (3.0 mg/ml). The β-gal enzymatic activity was measured at an optical density of 410 nm (OD 410). Mock treated HSV-1 with PBS was used as a […] control ((+) infected with virus alone; (−) uninfected control).

HSV-1 (KOS) gL86 [2] = assay: HSV-1 infection of HeLa, Vero and 293T cells, virus pre-incubated (Example 3); assay type: cell-based, herpes simplex virus type-1; details: HeLa cells; virus 30 pfu/cell pre-incubated 90 min; 6 hr
Protocol: CN blocks herpes simplex virus type-1 (HSV-1) infection of natural target cells. HeLa, Vero and 293T cells were each grown to 100% confluency in 96-well plates. The β-galactosidase-expressing recombinant virus HSV-1 (KOS) HSV-1 gL86 (30 pfu/cell) was pre-incubated with CN at the concentration indicated in FIG. 7 or mock treated with 1 X phosphate saline buffer for 90 min at room temperature. After 6 hr, the cells were washed, permeabilized and incubated with ONPG substrate (3.0 mg/ml). The β-gal enzymatic activity was measured at an optical density of 410 nm (OD 410). Each value shown in FIG. 7 is the mean of three or more determinations (±SD). Mock treated HSV-1 with PBS was used as a control. HSV-1 infection of HeLa (panel A) and Vero and 293T cells (panel B) was blocked by CN.

[3] = system: β-galactosidase-expressing recombinant Adenovirus; assay: Adenovirus infection of HeLa cells (Example 7); assay type: cell-based; details: similar experiments as for CN
Protocol: HeLa cells were infected with a β-galactosidase-expressing recombinant Adenovirus were pre-incubated with CN at (1) the dilution indicated in FIG. 11, panel A (stock concentration 22 nM) or (2) the concentrations indicated in FIG. 11, panel B, or mock treated with 1 X phosphate saline buffer for 90 min at room temperature. After 12 hr, the cells were washed, permeabilized and incubated with ONPG substrate (3.0 mg/ml) for quantitation of β-galactosidase activity expressed from the input viral genome. Positive (Pos) infected with virus alone; Negative (Neg) uninfected control. The enzymatic activity was measured at an optical density of 410 nm (OD 410).

[4] = system: HSV-2 (333 gJ-reporter virus); assay: HSV-2 infection of HeLa cells, ONPG assay (Example 4); assay type: cell-based; details: virus pre-incubated; starting concentration 1 mg/ml
Protocol: In this experiment different clinical strains of HSV-1 (F, G, and MP strains of HSV-1 [37] at 25 pfu/cell) were either pre-incubated with 1×PBS (control) or with CN at the concentrations indicated in FIG. 8, panel A for 90 min at room temperature. After 90 min of incubation the two pools of viruses were incubated with Nectin-1 receptor expressing CHO Igβ cells that express β-galactosidase upon viral entry as described. The viral infection blocking was measured by ONPG assay (FIG. 8, panel A). Similar experiment was conducted using Lac Z encoded HSV-2 (333 gJ-reporter virus). HSV-2 is a genital herpes virus. […] Each value shown is the mean of three or more determinations (±SD).

With vicrostatin [VCN] the “HSV-1 infection of HeLa cells, blocking and rank order (β-gal activity, OD 410)” value (HSV-1 (KOS) gL86 [1]) was “blocked by CN >VCN >ADAM15”, the “HSV-1 infection (β-gal activity, OD 410)” value (HSV-1 (KOS) gL86 [2]) was “blocked HSV-1 infection of HeLa cells” and the IC50 [3] was 21 µM. For the same molecule, the “HSV-2 infection of HeLa cells (dose response, ONPG assay)” value [4] was “significantly inhibited HSV-2 infection”.

B1: ADAM15: ADAM15 (Ad15) polypeptide tested against HSV-1; exact construct not stated (protein, UniProt Q13444 207-863, looked up)
Disintegrin and …: DVVTETKTVELVIVADHSEAQKYRDFQHLLNRTLEVALLLDTFFRPLNVRVALVGLEAWTQRDLVEISPNPAVTLENFLHWRRAHLLPRLPHDSAQLVTGTSFSGPTVGMAIQNSICSPDFSGGVNMDHSTSILGVASSIAHELGHSLGLDHDLPGNSCPCPGPAPAKTCIMEASTDFLPGLNFSNCSRRALEKALLDGMGSCLFERLPSLPPMAAFCGNMFVEPGEQCDCGFLDDCVDPCCDSLTCQLRPGAQCASDGPCCQNCQLRPSGWQCRPTRGDCDLPEFCPGDSSQCPPDVSLGDGEPCAGGQAVCMHGRCASYAQQCQSLWGPGAQPAAPLCLQTANTRGNAFGSCGRNPSGSYVSCTPRDAICGQLQCQTGRTQPLLGSIRDLLWETIDVNGTELNCSWVHLDLGSDVAQPLLTLPGTACGPGLVCIDHRCQRVDLLGAQECRSKCHGHGVCDSNRHCYCEEGWAPPDCTTQLKATSSLTTGLLLSLLVLLVLVMLGASYWYRARLHQRLCQLKGPTCQYRAAQSGPSERPGPPQRALLARGTKQASALSFPAPPSRPLPPDPVSKRLQAELADRPNPPTRPLPADPVVRSPKSQGPAKPPPPRKPLPADPQGRCPSGDLPGPGAGIPPLVVPSRPAPPPPTVSSLYL
B1 was tested, and the “HSV-1 infection of HeLa cells, blocking and rank order (β-gal activity, OD 410)” value (HSV-1 (KOS) gL86 [1]) was “blocked by CN >VCN >ADAM15”.
